# From US20080014255A1, “Liposome bonded with antibody and polyalkylene glycol” (Mitsubishi Chemical Corporation, priority 1999, published 2008)
# Assay: Pharmacokinetic test: plasma DXR concentration after tail vein administration of liposomes
# Type: in vivo, Male BALB/cAjcl mice
# Details: free (leaked) DXR
# Protocol: Male BALB/cAjcl mice (6-week old) were used in experiments. A mouse group consisting of four mice was used for each of the liposomes, and one untreated mouse was used as a blank in the experiment. The liposomes were administered into the tail vein at the dose of 2 mg/kg as DXR. After 16 hours from the administration, a Nembutal injection solution (Dainippon Pharmaceutical Co., Ltd.) was intraperitoneally administered to the mice and thoracotomy was performed under anesthetization to collect blood. Blood plasma was separated and used for analysis of DXR.
# 100 μL of the plasma was added with 1 mL of 0.3 M hydrochloric acid/50% ethanol (hydrochloric ethanol) and heated at 60° C. for 10 minutes to extract DXR. The extract was cooled to 4° C. and centrifuged at 15,000 rpm for 10 minutes to collect a supernatant. The sample was diluted 4 times with hydrochloric ethanol and its fluorescence was measured at a fluorescence wavelength of 590 nm with an excitation wavelength of 490 nm. A calibration curve was prepared by using DXR diluted with hydrochloric ethanol to known concentrations and used in quantification of DXR in plasma. The recovery of DXR from the mouse plasma was 95 to 98% in a range of […] of DXR (Reference: Cancer Res., 47, 4471, 1987).
# DXR in blood plasma was quantified in the same manner as in Example 2.
smiles,measurement,value
"COc1cccc2c1C(=O)c1c(O)c3c(c(O)c1C2=O)C[C@@](O)(C(=O)CO)C[C@@H]3O[C@H]1C[C@H](N)[C@H](O)[C@H](C)O1 [DXR, doxorubicin]",disappearance from blood of DXR leaked from the liposomes,rapidly disappear from blood
